Reference: patent publication EP3046573B1, “AMYLIN ANALOGUES” (Zealand Pharma A/S, priority 2013, dated 2015)
Like-named read-outs stand apart in the source and are kept apart here. Numbered stars: 1 amine (or outer) side, 2 acyl side, 3 side chain; on linkers, the order of the positions; unused ones are H or OH. Bridge positions count the residues as written; N and C are the ends. Square brackets hold non-standard residues; d marks the D form. Peptide text beside a SMILES is read from it. * marks the point of attachment. C20 diacid = O=C(O)CCCCCCCCCCCCCCCCCCC(=O)*; γGlu = O=C(O)[C@H](CCC(=O)[*:2])N[*:1]; Hyp = O=C(O)[C@@H]1C[C@@H](O)CN1; NMeI = CC[C@H](C)[C@H](NC)C(=O)O; Sar = CNCC(=O)O

How the values were obtained:
[1] = biological target: T1, human calcitonin receptor (hCTR2) (Homo sapiens, UniProt P30988); experiment: hCTR2 assay: induction of cAMP (AlphaScreen cAMP Assay kit) in COS7 cells expressing hCTR2; assay type: cell-based
T1 construct: expressed in transfected cells
T1 sequence (P30988 25-474): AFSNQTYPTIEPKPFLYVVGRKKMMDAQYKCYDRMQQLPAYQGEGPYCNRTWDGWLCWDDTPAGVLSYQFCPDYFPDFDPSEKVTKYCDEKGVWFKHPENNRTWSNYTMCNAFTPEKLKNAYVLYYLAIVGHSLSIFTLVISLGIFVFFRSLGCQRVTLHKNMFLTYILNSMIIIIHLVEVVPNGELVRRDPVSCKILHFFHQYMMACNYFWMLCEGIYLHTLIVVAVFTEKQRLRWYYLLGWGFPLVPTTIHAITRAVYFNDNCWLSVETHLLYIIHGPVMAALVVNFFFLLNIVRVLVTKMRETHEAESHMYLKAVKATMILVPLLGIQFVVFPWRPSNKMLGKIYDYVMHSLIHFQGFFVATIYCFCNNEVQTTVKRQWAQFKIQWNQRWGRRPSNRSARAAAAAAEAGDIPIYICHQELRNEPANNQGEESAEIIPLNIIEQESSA
In short: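 Stable RAMP-naive COS7 clone expressing hCTR2 was stimulated with increasing peptide concentrations in Tyrode buffer (pH 7.4) with 100 µM IBMX and 0.1% casein for 15 min at 37° C. Cells were lysed and cAMP measured by AlphaScreen. EC50 and efficacy relative to pramlintide came from 4PL curve fits.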

[2] = Solubility assessment (turbidity absorbance at 325 nm); assay type: physicochemical; conditions: stock 2 mg/ml diluted 1:1, ambient temperature (typically 25°C), n=1; for Solubility, Acetate buffer pH 4: 100 mM acetate buffer pH 4.0; for Solubility, Acetate buffer pH 5: 100 mM acetate buffer pH 5.0; for Solubility, Histidine buffer pH 6: 100 mM histidine buffer pH 6.0; for Solubility, Histidine buffer pH 7: 100 mM histidine buffer pH 7.0; for Solubility, Phosphate buffer pH 6: 100 mM phosphate buffer pH 6.0; for Solubility, Phosphate buffer pH 7: 100 mM phosphate buffer pH 7.0; for Solubility, Phosphate buffer pH 7.5: 100 mM phosphate buffer pH7.5
In short: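 Peptide stock (2 mg/ml) in water acidified to pH 2.5 with HCl was diluted 1:1 into 100 mM acetate (pH 4.0, 5.0), histidine (pH 6.0, 7.0) or phosphate (pH 6.0, 7.0, 7.5) buffer. A280 and A325 were read at about 25°C, n=1. A325 ≤ 0.02 meant solubility ≥ 1 mg/ml.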

[3] = Assessment of physical stability: fibril formation detected with Thioflavin T (ThT), lag-time; assay type: physicochemical; conditions: 1 mg/ml peptide, 40 µM ThT, FND = Fibrillation not detected; for Fibrillation lag time (hours) pH 4.0 (Ac): 50 mM acetate buffer pH 4.0, 96 hours at 40°C; for Fibrillation lag time (hours) pH 7.0 (Ph): 50 mM phosphate buffer pH 7.0, 96 hours at 40°C
Description: Solutions containing (i) 1 mg/ml of test peptide, 40 µM ThT and 50 mM phosphate (Ph) buffer (pH 7.0), (ii) 1 mg/ml of test peptide, 40 µM ThT and 50 mM histidine (His) buffer (pH 7.0), and (iii) 1 mg/ml of test peptide, 40 µM ThT and 50 mM acetate (Ac) buffer (pH 4.0), were loaded in a 96-well black fluorescence plate (clear bottom) in triplicate. Data were collected at fixed intervals of 10 min, each preceded by 300 s of automixing (agitation), over a period of 96 hours at 40° C. Physical stability, expressed as lag-time of fibril formation (in hours), was defined as the intersection between two linear regressions representing the initial stable phase and the growth phase.

[4] = biological target: T2, human amylin receptor 3 (hAMYR3) consisting of hCTR2 co-expressed with human Receptor Activity Modifying Protein 3 (hRAMP3) (Homo sapiens, UniProt O60896+P30988); experiment: hAMYR3 assay: induction of cAMP (AlphaScreen cAMP Assay kit) in COS7 cells expressing hAMYR3; assay type: cell-based; conditions: cAMP induction in COS7 cells expressing hAMYR3; average of a minimum of 3 determinations; read-out: hAMY R3 EC50
T2 construct: expressed in transfected cells
T2 sequence (P30988 25-474): T1 sequence (P30988 25-474)
T2 sequence (O60896 24-148 partner): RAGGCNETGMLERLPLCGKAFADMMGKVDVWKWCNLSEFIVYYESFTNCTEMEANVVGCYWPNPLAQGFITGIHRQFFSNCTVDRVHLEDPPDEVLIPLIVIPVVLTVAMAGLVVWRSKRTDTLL
In short: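 Stable COS7 clone co-expressing hCTR2 and hRAMP3, stimulated 15 min at 37° C with increasing peptide in Tyrode buffer pH 7.4 with 100 µM IBMX and 0.1% casein. cAMP measured by AlphaScreen after lysis; EC50 and % efficacy versus pramlintide from 4PL fit.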

[5] = cAMP induction in COS7 cells expressing hCTR2, average of a minimum of 3 determinations, read-out: hCTR2 EC50

Structure (SMILES)	EC50 [1]	Solubility, Acetate buffer pH 4 [2]	Solubility, Acetate buffer pH 5 [2]	Solubility, Histidine buffer pH 6 [2]	Solubility, Histidine buffer pH 7 [2]	Solubility, Phosphate buffer pH 6 [2]	Solubility, Phosphate buffer pH 7 [2]	Solubility, Phosphate buffer pH 7.5 [2]	Fibrillation lag time (hours) pH 4.0 (Ac) [3]	Fibrillation lag time (hours) pH 7.0 (His) ([3]; 50 mM histidine buffer pH 7.0, 96 hours at 40°C)	Fibrillation lag time (hours) pH 7.0 (Ph) [3]	EC50 [1, 5]	EC50 [4]
CC[C@H](C)[C@@H](C(=O)N[C@@H](CC(C)C)C(=O)N[C@@H](CO)C(=O)N[C@@H](CO)C(=O)N[C@H](C(=O)N[C@@H](CC(N)=O)C(=O)N[C@H](C(=O)NCC(=O)N[C@@H](CO)C(=O)N[C@@H](Cc1c[nH]cn1)C(=O)N[C@H](C(=O)N[C@@H](Cc1ccc(O)cc1)C(N)=O)[C@@H](C)O)C(C)C)[C@@H](C)O)N(C)C(=O)[C@H](C)NC(=O)CN(C)C(=O)[C@H](Cc1ccccc1)NC(=O)[C@H](CC(N)=O)NC(=O)[C@H](CC(N)=O)NC(=O)[C@H](CO)NC(=O)[C@H](CO)NC(=O)[C@H](Cc1c[nH]cn1)NC(=O)[C@H](Cc1c[nH]cn1)NC(=O)[C@H](CC(C)C)NC(=O)[C@H](Cc1ccccc1)NC(=O)[C@H](CCC(=O)O)NC(=O)[C@H](C)NC(=O)[C@H](CC(C)C)NC(=O)[C@H](CCCNC(=N)N)NC(=O)[C@H](CCC(N)=O)NC(=O)[C@@H](NC(=O)[C@H](C)NC(=O)[C@@H]1CSSC[C@H](NC(=O)[C@H](CCCCN)NC(=O)CC[C@H](NC(=O)CCCCCCCCCCCCCCCCCCC(=O)O)C(=O)O)C(=O)N[C@@H](CC(N)=O)C(=O)N[C@@H]([C@@H](C)O)C(=O)N[C@@H](C)C(=O)N[C@@H]([C@@H](C)O)C(=O)N1)[C@@H](C)O [Compound 3, [19CD]-isoGlu-KC()NTATC()ATQRLAEFLHHSSNNF-Gly(Me)-A-Ile(Me)-LSSTNVGSHTY-NH2] ({C20 diacid-γGlu}-KCNTATCATQRLAEFLHHSSNNF[Sar]A[NMeI]LSSTNVGSHTY-NH2; disulfide 2-7)	1.3 nM	SS (SS indicates solubility ≥ 1mg/ml)	SS (SS indicates solubility ≥ 1mg/ml)	SS (SS indicates solubility ≥ 1mg/ml)	II** (II indicates solubility ≤ 1 mg/ml)	SS (SS indicates solubility ≥ 1mg/ml)	II (II indicates solubility ≤ 1 mg/ml)	II (II indicates solubility ≤ 1 mg/ml)	FND	FND	FND	–	–
CC[C@H](C)[C@@H](C(=O)N[C@@H](CC(C)C)C(=O)N[C@@H](CO)C(=O)N[C@@H](CO)C(=O)N[C@H](C(=O)N[C@@H](CCC(=O)O)C(=O)N[C@H](C(=O)NCC(=O)N[C@@H](CO)C(=O)N[C@@H](CCC(=O)O)C(=O)N[C@H](C(=O)N1C[C@H](O)C[C@H]1C(N)=O)[C@@H](C)O)C(C)C)[C@@H](C)O)N(C)C(=O)CN(C)C(=O)[C@H](Cc1ccccc1)NC(=O)[C@H](CO)NC(=O)[C@H](CO)NC(=O)[C@H](CCCNC(=N)N)NC(=O)[C@H](Cc1c[nH]cn1)NC(=O)[C@H](CC(C)C)NC(=O)[C@H](Cc1ccccc1)NC(=O)[C@H](CCC(=O)O)NC(=O)[C@H](C)NC(=O)[C@H](CC(C)C)NC(=O)[C@H](CCCNC(=N)N)NC(=O)[C@H](CCC(=O)O)NC(=O)[C@@H](NC(=O)[C@H](C)NC(=O)[C@@H]1CSSC[C@H](NC(=O)[C@H](CCCNC(=N)N)NC(=O)CC[C@H](NC(=O)CCCCCCCCCCCCCCCCCCC(=O)O)C(=O)O)C(=O)NCC(=O)N[C@@H]([C@@H](C)O)C(=O)N[C@@H](C)C(=O)N[C@@H]([C@@H](C)O)C(=O)N1)[C@@H](C)O [Compound 167, [19CD]-isoGlu-RC()GTATC()ATERLAEFLHRSSF-Gly(Me)-Ile(Me)-LSSTEVGSET-Hyp-NH2] ({C20 diacid-γGlu}-RCGTATCATERLAEFLHRSSF[Sar][NMeI]LSSTEVGSET[Hyp]-NH2; disulfide 2-7)	–	SS (SS indicates solubility ≥ 1mg/ml)	SS (SS indicates solubility ≥ 1mg/ml)	SS (SS indicates solubility ≥ 1mg/ml)	SS (SS indicates solubility ≥ 1mg/ml)	SS (SS indicates solubility ≥ 1mg/ml)	SS (SS indicates solubility ≥ 1mg/ml)	SS (SS indicates solubility ≥ 1mg/ml)	–	–	–	0.078 nM	0.11 nM
CC[C@H](C)[C@@H](C(=O)N[C@@H](CC(C)C)C(=O)N[C@@H](CO)C(=O)N[C@@H](CO)C(=O)N[C@H](C(=O)N[C@@H](CCC(=O)O)C(=O)N[C@H](C(=O)NCC(=O)N[C@@H](CO)C(=O)N[C@@H](CCC(=O)O)C(=O)N[C@H](C(=O)N1C[C@H](O)C[C@H]1C(N)=O)[C@@H](C)O)C(C)C)[C@@H](C)O)N(C)C(=O)[C@H](C)NC(=O)CN(C)C(=O)[C@H](Cc1ccccc1)NC(=O)[C@H](CO)NC(=O)[C@H](CO)NC(=O)[C@H](CO)NC(=O)[C@H](CO)NC(=O)[C@H](CCCNC(=N)N)NC(=O)[C@H](Cc1c[nH]cn1)NC(=O)[C@H](CC(C)C)NC(=O)[C@H](Cc1ccccc1)NC(=O)[C@H](CCC(=O)O)NC(=O)[C@H](C)NC(=O)[C@H](CC(C)C)NC(=O)[C@H](CCCNC(=N)N)NC(=O)[C@H](CCC(=O)O)NC(=O)[C@@H](NC(=O)[C@H](C)NC(=O)[C@@H]1CSSC[C@H](NC(=O)[C@H](CCCCN)NC(=O)[C@H](CCCCN)NC(=O)CC[C@H](NC(=O)CCCCCCCCCCCCCCCCCCC(=O)O)C(=O)O)C(=O)N[C@@H](CCC(=O)O)C(=O)N[C@@H]([C@@H](C)O)C(=O)N[C@@H](C)C(=O)N[C@@H]([C@@H](C)O)C(=O)N1)[C@@H](C)O [Compound 168, [19CD]-isoGlu-KKC()ETATC()ATERLAEFLHRSSSSF-Gly(Me)-A-Ile(Me)-LSSTEVGSET-Hyp-NH2] ({C20 diacid-γGlu}-KKCETATCATERLAEFLHRSSSSF[Sar]A[NMeI]LSSTEVGSET[Hyp]-NH2; disulfide 3-8)	–	SS (SS indicates solubility ≥ 1mg/ml)	II (II indicates solubility ≤ 1 mg/ml)	SS (SS indicates solubility ≥ 1mg/ml)	SS (SS indicates solubility ≥ 1mg/ml)	SS (SS indicates solubility ≥ 1mg/ml)	SS (SS indicates solubility ≥ 1mg/ml)	SS (SS indicates solubility ≥ 1mg/ml)	–	–	–	0.57 nM	0.7 nM
CC[C@H](C)[C@H](NC(=O)[C@@H]1CCCN1C(=O)CNC(=O)[C@H](Cc1ccccc1)NC(=O)[C@H](CC(N)=O)NC(=O)[C@H](CC(N)=O)NC(=O)[C@H](CO)NC(=O)[C@H](CO)NC(=O)[C@H](Cc1c[nH]cn1)NC(=O)[C@@H](NC(=O)[C@H](CC(C)C)NC(=O)[C@H](Cc1ccccc1)NC(=O)[C@H](CC(N)=O)NC(=O)[C@H](C)NC(=O)[C@H](CC(C)C)NC(=O)[C@H](CCCNC(=N)N)NC(=O)[C@H](CCC(N)=O)NC(=O)[C@@H](NC(=O)[C@H](C)NC(=O)[C@@H]1CSSC[C@H](NC(=O)[C@@H](N)CCCCN)C(=O)N[C@@H](CC(N)=O)C(=O)N[C@@H]([C@@H](C)O)C(=O)N[C@@H](C)C(=O)N[C@@H]([C@@H](C)O)C(=O)N1)[C@@H](C)O)C(C)C)C(=O)N[C@@H](CC(C)C)C(=O)N1CCC[C@H]1C(=O)N1CCC[C@H]1C(=O)N[C@H](C(=O)N[C@@H](CC(N)=O)C(=O)N[C@H](C(=O)NCC(=O)N[C@@H](CO)C(=O)N[C@@H](CC(N)=O)C(=O)N[C@H](C(=O)N[C@@H](Cc1ccc(O)cc1)C(N)=O)[C@@H](C)O)C(C)C)[C@@H](C)O [pramlin tide]	–	–	–	–	–	–	–	–	48 hours	–	2 hours	–	–
